Literature values, collected in US7541158B2, “Taste receptors of the T1R family from domestic dog” (Monell Chemical Senses Center, priority 2004, dated 2009).

How the values were obtained:
[1] = tested on: dog; conditions: neurophysiological studies; mono- and disaccharides and sweeteners
[2] = tested on: domestic dog
[3] = tested on: dog taste nerve fibers; conditions: for response of dog taste nerve fibers that respond to sucrose: sucrose-responsive fibers

SMILES	taste response activity in the dog [1]	taste quality perceived by dog [2]	response of dog taste nerve fibers fired by saccharin ([3]; saccharin-responsive fibers)	response of dog taste nerve fibers that respond to sucrose [3]	behavioral preference ([2]; behavior said to be congenital)
O=C(CO)[C@@H](O)[C@H](O)[C@H](O)CO [D-fructose]	Particularly active				
O=C1NS(=O)(=O)c2ccccc21 [saccharin]		bitter	fired	no response	
OC[C@H]1O[C@@](CO)(O[C@H]2O[C@H](CO)[C@@H](O)[C@H](O)[C@H]2O)[C@@H](O)[C@@H]1O [sucrose]	Particularly active			responded	shows a preference
OC[C@H]1O[C@](O)(CO)[C@@H](O)[C@@H]1O [β-D-fructose]	Particularly active				
